Measured values from US20120029187A1, “HALOALKYLSULFONANILIDE DERIVATIVE” (Nissan Chemical Industries, Ltd., priority 2009, published 2012).

How the values were obtained:
Type in all cases: in vivo
barnyardgrass [1] = assay: Test Example 1: herbicidal effects in preemergence treatment under submerged conditions; settings: dose 2.52 g/a
Procedure, shortened: (§1)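 Scoring 0 (<5% mortality) to 5 (≥90%) was done three weeks after preemergence application to the water surface of submerged (4 cm) alluvial soil, doses given as g per are. Weeds were seeded and 2.5-leaf rice transplanted on the treatment day; greenhouse at 25–30 °C.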

bulrush [2] = assay: as above; settings: dose 2.52 g/a
Procedure, shortened: as §1

ducksalad [3] = assay: as above; settings: dose 2.52 g/a
Procedure, shortened: as §1

transplanted rice = assay: Test Example 1: preemergence treatment under submerged conditions, effect on crop; settings: dose 2.52 g/a
Procedure, shortened: as §1

barnyardgrass [4] = assay: Test Example 2: herbicidal effects during the vegetation period under submerged conditions; settings: treatment during the vegetation period under submerged conditions; dose 2.52 g/a
Procedure, shortened: (§2)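 Barnyardgrass, bulrush and ducksalad were co-sown in alluvial soil flooded to 4 cm and grown in a greenhouse at 25 to 30° C. At the 1- or 2-leaf stage, water-diluted emulsifiable concentrates went onto the water surface at set doses (g/a). Herbicidal effect was scored three weeks later on a graded scale.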

bulrush [5] = assay: as above; settings: treatment during the vegetation period under submerged conditions; dose 2.52 g/a
Procedure, shortened: as §2

ducksalad [6] = assay: as above; settings: treatment during the vegetation period under submerged conditions; dose 2.52 g/a
Procedure, shortened: as §2

Italian ryegrass [7] = assay: Test Example 3: herbicidal effects in soil treatment; settings: dose 6.3 g/a
Procedure, shortened: (§3)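 Seeds were sown in sterilized diluvial soil and covered with about 1.5 cm of soil. Compounds, formulated as emulsifiable concentrates and diluted with water, were sprayed evenly over the soil surface at set doses in g/a. Herbicidal effect was scored on a rating scale three weeks later.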

barnyardgrass [8] = assay: as above; settings: dose 6.3 g/a
Procedure, shortened: as §3

common chickweed [9] = assay: as above; settings: dose 6.3 g/a
Procedure, shortened: as §3

common lambsquater [10] = assay: as above; settings: dose 6.3 g/a
Procedure, shortened: as §3

common ragweed [11] = assay: as above; settings: dose 6.3 g/a
Procedure, shortened: as §3

giant foxtail [12] = assay: as above; settings: dose 6.3 g/a
Procedure, shortened: as §3

large crabgrass [13] = assay: as above; settings: dose 6.3 g/a
Procedure, shortened: as §3

posumbu knotweed [14] = assay: as above; settings: dose 6.3 g/a
Procedure, shortened: as §3

redroot pigweed [15] = assay: as above; settings: dose 6.3 g/a
Procedure, shortened: as §3

velvetleaf [16] = assay: as above; settings: dose 6.3 g/a
Procedure, shortened: as §3

water foxtail [17] = assay: as above; settings: dose 6.3 g/a
Procedure, shortened: as §3

wild oat [18] = assay: as above; settings: dose 6.3 g/a
Procedure, shortened: as §3

Italian ryegrass [19] = assay: Test Example 4: herbicidal effect in foliage treatment; settings: dose 6.3 g/a, three weeks after application
Procedure, shortened: (§4)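 Visual herbicidal scores on a graded scale were recorded three weeks after foliar application. Compounds went on as diluted emulsifiable concentrates at predetermined g/a to plants grown 14 days in a 25 to 30° C greenhouse.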

barnyardgrass [20] = assay: as above; settings: dose 6.3 g/a, three weeks after application
Procedure, shortened: as §4

beadstraw = assay: as above; settings: dose 6.3 g/a, three weeks after application
Procedure, shortened: as §4

common chickweed [21] = assay: as above; settings: dose 6.3 g/a, three weeks after application
Procedure, shortened: as §4

common lambsquater [22] = assay: as above; settings: dose 6.3 g/a, three weeks after application
Procedure, shortened: as §4

common ragweed [23] = assay: as above; settings: dose 6.3 g/a, three weeks after application
Procedure, shortened: as §4

giant foxtail [24] = assay: as above; settings: dose 6.3 g/a, three weeks after application
Procedure, shortened: as §4

large crabgrass [25] = assay: as above; settings: dose 6.3 g/a, three weeks after application
Procedure, shortened: as §4

posumbu knotweed [26] = assay: as above; settings: dose 6.3 g/a, three weeks after application
Procedure, shortened: as §4

redroot pigweed [27] = assay: as above; settings: dose 6.3 g/a, three weeks after application
Procedure, shortened: as §4

velvetleaf [28] = assay: as above; settings: dose 6.3 g/a, three weeks after application
Procedure, shortened: as §4

water foxtail [29] = assay: as above; settings: dose 6.3 g/a, three weeks after application
Procedure, shortened: as §4

wild oat [30] = assay: as above; settings: dose 6.3 g/a, three weeks after application
Procedure, shortened: as §4

| SMILES | A: barnyardgrass, herbicidal effect (evaluation scale 0-5) (barnyardgrass [1]) | B: bulrush, herbicidal effect (evaluation scale 0-5) (bulrush [2]) | C: ducksalad, herbicidal effect (evaluation scale 0-5) (ducksalad [3]) | a: transplanted rice, effect on crop (evaluation scale 0-5) (transplanted rice) | A: barnyardgrass, herbicidal effect (evaluation scale 0-5) (barnyardgrass [4]) | B: bulrush, herbicidal effect (evaluation scale 0-5) (bulrush [5]) | C: ducksalad, herbicidal effect (evaluation scale 0-5) (ducksalad [6]) | H: Italian ryegrass, herbicidal effect (evaluation scale 0-5) (Italian ryegrass [7]) | A: barnyardgrass, herbicidal effect (evaluation scale 0-5) (barnyardgrass [8]) | N: common chickweed, herbicidal effect (evaluation scale 0-5) (common chickweed [9]) | L: common lambsquater, herbicidal effect (evaluation scale 0-5) (common lambsquater [10]) | J: common ragweed, herbicidal effect (evaluation scale 0-5) (common ragweed [11]) | E: giant foxtail, herbicidal effect (evaluation scale 0-5) (giant foxtail [12]) | D: large crabgrass, herbicidal effect (evaluation scale 0-5) (large crabgrass [13]) | M: posumbu knotweed, herbicidal effect (evaluation scale 0-5) (posumbu knotweed [14]) | K: redroot pigweed, herbicidal effect (evaluation scale 0-5) (redroot pigweed [15]) | I: velvetleaf, herbicidal effect (evaluation scale 0-5) (velvetleaf [16]) | G: water foxtail, herbicidal effect (evaluation scale 0-5) (water foxtail [17]) | F: wild oat, herbicidal effect (evaluation scale 0-5) (wild oat [18]) | H: Italian ryegrass, herbicidal effect (Italian ryegrass [19]) | other results |
| --- | --- | --- | --- | --- | --- | --- | --- | --- | --- | --- | --- | --- | --- | --- | --- | --- | --- | --- | --- | --- | --- |
| CCOC(=O)N(c1ccccc1CN1CCOC(C)C1=O)S(=O)(=O)C(F)(F)F (stereo not shown) [Compound I-5, 2-methyl-4-[2-(N-ethoxycarbonyl-N-trifluoromethanesulfonyl)aminobenzyl]-1,4-oxazinan-3-one] | 5 (mortality of 90% or above (nearly complete death)) | 5 (mortality of 90% or above (nearly complete death)) | 5 (mortality of 90% or above (nearly complete death)) | 0 (mortality of less than 5% (almost ineffective)) | 5 (mortality of 90% or above (nearly complete death)) | 5 (mortality of 90% or above (nearly complete death)) | 5 (mortality of 90% or above (nearly complete death)) | 1 (mortality of at least 5% and less than 20%) | 5 (mortality of 90% or above (nearly complete death)) | 5 (mortality of 90% or above (nearly complete death)) | 5 (mortality of 90% or above (nearly complete death)) | 4 (mortality of at least 70% and less than 90%) | 5 (mortality of 90% or above (nearly complete death)) | 5 (mortality of 90% or above (nearly complete death)) | 4 (mortality of at least 70% and less than 90%) | 4 (mortality of at least 70% and less than 90%) | 4 (mortality of at least 70% and less than 90%) | 5 (mortality of 90% or above (nearly complete death)) | 3 (mortality of at least 40% and less than 70%) | 4 (mortality of at least 70% and less than 90%) | A: barnyardgrass, herbicidal effect (barnyardgrass [20]): 5 (mortality of 90% or above (nearly complete death)); O: beadstraw, herbicidal effect (beadstraw): 3 (mortality of at least 40% and less than 70%); N: common chickweed, herbicidal effect (common chickweed [21]): 4 (mortality of at least 70% and less than 90%); L: common lambsquater, herbicidal effect (common lambsquater [22]): 3 (mortality of at least 40% and less than 70%); J: common ragweed, herbicidal effect (common ragweed [23]): 4 (mortality of at least 70% and less than 90%); E: giant foxtail, herbicidal effect (giant foxtail [24]): 4 (mortality of at least 70% and less than 90%); D: large crabgrass, herbicidal effect (large crabgrass [25]): 5 (mortality of 90% or above (nearly complete death)); M: posumbu knotweed, herbicidal effect (posumbu knotweed [26]): 4 (mortality of at least 70% and less than 90%); K: redroot pigweed, herbicidal effect (redroot pigweed [27]): 3 (mortality of at least 40% and less than 70%); I: velvetleaf, herbicidal effect (velvetleaf [28]): 4 (mortality of at least 70% and less than 90%); G: water foxtail, herbicidal effect (water foxtail [29]): 5 (mortality of 90% or above (nearly complete death)); F: wild oat, herbicidal effect (wild oat [30]): 2 (mortality of at least 20% and less than 40%) |
| CCOC(=O)N(c1ccccc1CN1CCS(=O)(=O)CC1=O)S(=O)(=O)C(F)(F)F [Compound I-19, 4-[2-(N-ethoxycarbonyl-N-trifluoromethanesulfonyl)aminobenzyl]-1,4-thiazinan-1,1-dioxide-3-one] | 5 (mortality of 90% or above (nearly complete death)) | 5 (mortality of 90% or above (nearly complete death)) | 5 (mortality of 90% or above (nearly complete death)) | 0 (mortality of less than 5% (almost ineffective)) | 3 (mortality of at least 40% and less than 70%) | 5 (mortality of 90% or above (nearly complete death)) | 4 (mortality of at least 70% and less than 90%) | 2 (mortality of at least 20% and less than 40%) | 4 (mortality of at least 70% and less than 90%) | 5 (mortality of 90% or above (nearly complete death)) | 5 (mortality of 90% or above (nearly complete death)) | 4 (mortality of at least 70% and less than 90%) | 4 (mortality of at least 70% and less than 90%) | 4 (mortality of at least 70% and less than 90%) | 4 (mortality of at least 70% and less than 90%) | 4 (mortality of at least 70% and less than 90%) | 2 (mortality of at least 20% and less than 40%) | 5 (mortality of 90% or above (nearly complete death)) | 0 (mortality of less than 5% (almost ineffective)) | 3 (mortality of at least 40% and less than 70%) | A: barnyardgrass, herbicidal effect (barnyardgrass [20]): 4 (mortality of at least 70% and less than 90%); O: beadstraw, herbicidal effect (beadstraw): 4 (mortality of at least 70% and less than 90%); N: common chickweed, herbicidal effect (common chickweed [21]): 4 (mortality of at least 70% and less than 90%); L: common lambsquater, herbicidal effect (common lambsquater [22]): 4 (mortality of at least 70% and less than 90%); J: common ragweed, herbicidal effect (common ragweed [23]): 4 (mortality of at least 70% and less than 90%); E: giant foxtail, herbicidal effect (giant foxtail [24]): 4 (mortality of at least 70% and less than 90%); D: large crabgrass, herbicidal effect (large crabgrass [25]): 4 (mortality of at least 70% and less than 90%); M: posumbu knotweed, herbicidal effect (posumbu knotweed [26]): 3 (mortality of at least 40% and less than 70%); K: redroot pigweed, herbicidal effect (redroot pigweed [27]): 4 (mortality of at least 70% and less than 90%); I: velvetleaf, herbicidal effect (velvetleaf [28]): 3 (mortality of at least 40% and less than 70%); G: water foxtail, herbicidal effect (water foxtail [29]): 5 (mortality of 90% or above (nearly complete death)); F: wild oat, herbicidal effect (wild oat [30]): 0 (mortality of less than 5% (almost ineffective)) |
